Earlier results as cited in article PMC10366102, “Dose escalation and expansion cohorts in patients with advanced breast cancer in a Phase I study of the CDK7-inhibitor samuraciclib” (Nature Communications, 2023).

How the values were obtained:
[1] = system: PIK3CA-mutated HR+ advanced breast cancer; design: method as in PMID 33794206; conditions: PIK3CA mutation, post CDK4/6 inhibitor; cited from earlier work
[2] = system: HR+ metastatic breast cancer; design: method as in PMID 33230905; conditions: after CDK4/6 inhibitor; cited from earlier work

| Compound | Median PFS [1] [months] | Median duration of treatment [2] [months] |
| --- | --- | --- |
| Cc1nc(NC(=O)N2CCC[C@H]2C(N)=O)sc1-c1ccnc(C(C)(C)C(F)(F)F)c1 [Alpelisib] | 7.3 |  |
| CO[C@H]1C[C@@H]2CC[C@@H](C)[C@@](O)(O2)C(=O)C(=O)N2CCCC[C@H]2C(=O)O[C@H]([C@H](C)C[C@@H]2CC[C@@H](OCCO)[C@H](OC)C2)CC(=O)[C@H](C)/C=C(\C)[C@@H](O)[C@@H](OC)C(=O)[C@H](C)C[C@H](C)/C=C/C=C/C=C/1C [everolimus] |  | 3.6 |
